Test [1] has as its target T1, Gamma-aminobutyric acid receptor subunit alpha-5 (Homo sapiens, UniProt P31644).
T1 sequence (P31644 whole entry): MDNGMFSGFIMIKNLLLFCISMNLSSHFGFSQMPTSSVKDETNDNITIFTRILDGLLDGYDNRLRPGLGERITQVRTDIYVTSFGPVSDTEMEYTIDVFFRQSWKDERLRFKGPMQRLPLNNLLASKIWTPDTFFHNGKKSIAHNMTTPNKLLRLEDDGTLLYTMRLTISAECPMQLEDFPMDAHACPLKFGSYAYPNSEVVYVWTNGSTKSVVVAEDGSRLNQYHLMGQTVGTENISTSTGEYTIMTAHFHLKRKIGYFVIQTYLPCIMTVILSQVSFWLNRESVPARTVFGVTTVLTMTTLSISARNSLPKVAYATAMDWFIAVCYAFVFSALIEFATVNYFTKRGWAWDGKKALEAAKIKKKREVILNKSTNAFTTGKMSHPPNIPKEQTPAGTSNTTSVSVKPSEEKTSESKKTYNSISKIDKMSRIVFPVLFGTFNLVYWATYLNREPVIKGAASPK
The test can be described thus: Inhibition of [3H]flumazenil binding to recombinant GABA-A receptor alpha-5 subunit in spinal cord. It is filed as tissue-based.

Test [2] has as its target T1, Gamma-aminobutyric acid receptor subunit alpha-5. The experiment in a line: Inhibition of [3H]flumazenil binding to recombinant GABA-A receptor alpha-5 subunit in cerebellum. It is filed as tissue-based.

As a reminder, the IC50 is the concentration at which inhibition is half-maximal. As to `CCCC(=O)N(C)Cc1c(-c2ccc(Cl)cc2)nc2ccccn12`, the values for the IC50 in test [1] and in test [2] were 4.6 nM and 2.7 nM, respectively.

The record behind these values is ChEMBL document CHEMBL1130521, “A conformational study of ligands for omega modulatory sites of GABAa receptors by NOESY NMR spectroscopy and distance geometry” (Bioorg Med Chem Lett, 1997).
